Assays:
[1] = test system: IL-6 in A549 cells stimulated with IL-1β; assay: A549 Cell Assay to Measure Inflammation Markers (inhibition of IL-1β-induced IL-6); assay type: cell-based; conditions: Homo sapiens, A549, A549 Cell Assay to Measure Inflammation Markers; intrinsic activity, Emax class ranges
Method: A549 Cell Assay to Measure Inflammation Markers
Further dilution (1:250) of compound was made into assay medium and 50 μL/well diluted drug or DMSO/media control was applied to cells. After a 1 h pre-incubation in a temperature, CO2, and humidity controlled incubator, set to 37° C., 50 μL/well of 4 ng/mL IL-1β diluted in assay media, was applied to cultures. Assay plates, with a final volume of 200 μL/well and final concentrations of 0.1% DMSO and 1 ng/mL IL-1β were returned to incubator for a […] incubation period. Next, plates were spun at 183 g (1000 rpm in Beckman/Coulter Allegra 6KR centrifuge) for 10 min. Cell-free supernatant (150 μL/well) was collected and IL-6 was measured by MSD kit, following protocol of manufacturer, and using MSD SECTOR Imager 6000 instrument. […] Results were represented as IC50 and Emax values.

[2] = target: T1, Glucocorticoid Receptor (GR) (Homo sapiens, UniProt P04150); assay: GR Fluorescence Polarization Assay (PolarScreen Glucocorticoid Receptor Competitor Assay, Red); conditions: IC50 class ranges, read-out: GR binding
T1 construct: purchased Invitrogen P2893
T1 sequence (P04150 1-777): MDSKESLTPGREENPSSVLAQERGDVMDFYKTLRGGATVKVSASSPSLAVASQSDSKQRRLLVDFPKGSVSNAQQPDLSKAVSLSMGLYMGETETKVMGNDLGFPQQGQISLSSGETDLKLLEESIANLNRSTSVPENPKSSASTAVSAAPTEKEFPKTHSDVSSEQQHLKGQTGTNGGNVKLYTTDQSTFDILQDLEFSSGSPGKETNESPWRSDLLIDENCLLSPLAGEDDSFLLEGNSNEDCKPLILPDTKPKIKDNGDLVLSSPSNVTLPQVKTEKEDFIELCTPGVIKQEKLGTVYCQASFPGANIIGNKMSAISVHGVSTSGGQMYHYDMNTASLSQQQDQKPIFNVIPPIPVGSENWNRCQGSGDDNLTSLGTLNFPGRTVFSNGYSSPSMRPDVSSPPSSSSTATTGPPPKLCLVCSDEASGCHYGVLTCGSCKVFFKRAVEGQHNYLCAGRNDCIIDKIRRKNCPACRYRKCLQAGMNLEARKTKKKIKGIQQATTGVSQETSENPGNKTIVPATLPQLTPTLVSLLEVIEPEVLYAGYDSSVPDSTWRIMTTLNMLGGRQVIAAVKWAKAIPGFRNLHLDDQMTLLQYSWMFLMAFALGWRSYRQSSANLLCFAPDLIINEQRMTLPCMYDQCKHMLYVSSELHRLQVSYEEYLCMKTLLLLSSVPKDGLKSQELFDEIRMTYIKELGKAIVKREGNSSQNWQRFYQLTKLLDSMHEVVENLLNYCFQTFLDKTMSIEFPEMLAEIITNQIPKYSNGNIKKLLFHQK
How it was run: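 Competitive fluorescence-polarization assay using a red fluorescent glucocorticoid tracer with human GR in kit buffer. Compounds serially diluted 1:4 in DMSO, incubated with tracer and GR overnight at 4° C, then polarization read.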

Row | SMILES | Emax [1] [%] | IC50 [2] [µM]
1 | CCn1nc(-c2ccccn2)c2c1N[C@@H](C)CS[C@H]2c1ccc(C#CC(C)(C)O)cc1C (single isomer, unassigned) [M.32, 4-(4-(1-ethyl-7-methyl-3-(pyridin-2-yl)-4,6,7,8-tetrahydro-1H-pyrazolo[3,4-e][1,4]thiazepin-4-yl)-3-methylphenyl)-2-methylbut-3-yn-2-ol] | > 70 | < 0.1
2 | CCn1nc(-c2ccccn2)c2c1N[C@H](C)CS[C@H]2c1ccc(CCCO)cc1C (single isomer, unassigned) [M.35, 3-(4-(1-ethyl-7-methyl-3-(pyridin-2-yl)-4,6,7,8-tetrahydro-1H-pyrazolo[3,4-e][1,4]thiazepin-4-yl)-3-methylphenyl)propan-1-ol] | > 70 | < 0.1
3 | CCn1nc(-c2ccccn2)c2c1N[C@@H](C)CS[C@H]2c1ccc(CCCO)cc1C (single isomer, unassigned) [M.36, 3-(4-(1-ethyl-7-methyl-3-(pyridin-2-yl)-4,6,7,8-tetrahydro-1H-pyrazolo[3,4-e][1,4]thiazepin-4-yl)-3-methylphenyl)propan-1-ol] | > 60 | < 0.1
4 | CCn1nc(-c2ccccn2)c2c1N[C@@H](C)CS[C@H]2c1ccc(CCC(C)(C)O)cc1C (single isomer, unassigned) [M.39, 4-(4-(1-ethyl-7-methyl-3-(pyridin-2-yl)-4,6,7,8-tetrahydro-1H-pyrazolo[3,4-e][1,4]thiazepin-4-yl)-3-methylphenyl)-2-methylbutan-2-ol] | > 70 | < 0.1
5 | CCn1nc(-c2ccccn2)c2c1N[C@H](C)CS[C@H]2c1ccc(CCC(C)(C)O)cc1C (single isomer, unassigned) [M.40, 4-(4-(1-ethyl-7-methyl-3-(pyridin-2-yl)-4,6,7,8-tetrahydro-1H-pyrazolo[3,4-e][1,4]thiazepin-4-yl)-3-methylphenyl)-2-methylbutan-2-ol] | > 70 | < 0.1
6 | Cc1cc(CCC(C)(C)O)ccc1[C@@H]1SC[C@H](C)Nc2c1c(-c1ccccn1)nn2C (single isomer, unassigned) [M.42, 4-(4-(1,7-dimethyl-3-(pyridin-2-yl)-4,6,7,8-tetrahydro-1H-pyrazolo[3,4-e][1,4]thiazepin-4-yl)-3-methylphenyl)-2-methylbutan-2-ol] | > 60 | < 0.1
7 | Cc1cc(CCC(C)(C)O)ccc1[C@@H]1SC[C@@H](C)Nc2c1c(-c1ccccn1)nn2C (single isomer, unassigned) [M.44, 4-(4-(1,7-dimethyl-3-(pyridin-2-yl)-4,6,7,8-tetrahydro-1H-pyrazolo[3,4-e][1,4]thiazepin-4-yl)-3-methylphenyl)-2-methylbutan-2-ol] | > 60 | < 0.1
8 | CCn1nc(-c2ccccn2)c2c1N[C@H](C)CS[C@H]2c1ccc(C(N)=O)cc1C (single isomer, unassigned) [M.46, 4-(1-ethyl-7-methyl-3-(pyridin-2-yl)-4,6,7,8-tetrahydro-1H-pyrazolo[3,4-e][1,4]thiazepin-4-yl)-3-methylbenzamide] | > 50 | < 0.1
9 | CCn1nc(-c2ccccn2)c2c1N[C@@H](C)CS[C@H]2c1ccc(C(N)=O)cc1C (single isomer, unassigned) [M.48, 4-(1-ethyl-7-methyl-3-(pyridin-2-yl)-4,6,7,8-tetrahydro-1H-pyrazolo[3,4-e][1,4]thiazepin-4-yl)-3-methylbenzamide] | > 50 | < 0.1
10 | Cc1cc(CCCO)ccc1[C@@H]1SC[C@@H](C)Nc2c1c(-c1ccccn1)nn2C (single isomer, unassigned) [M.51, 3-(4-(1,7-dimethyl-3-(pyridin-2-yl)-4,6,7,8-tetrahydro-1H-pyrazolo[3,4-e][1,4]thiazepin-4-yl)-3-methylphenyl)propan-1-ol] | < 50 | < 0.1
11 | Cc1cc(CCCO)ccc1[C@@H]1SC[C@H](C)Nc2c1c(-c1ccccn1)nn2C (single isomer, unassigned) [M.52, 3-(4-(1,7-dimethyl-3-(pyridin-2-yl)-4,6,7,8-tetrahydro-1H-pyrazolo[3,4-e][1,4]thiazepin-4-yl)-3-methylphenyl)propan-1-ol] | < 50 | < 0.1
12 | Cc1cc(C#CCCO)ccc1[C@@H]1SC[C@H](C)Nc2c1c(-c1ccccn1)nn2C (single isomer, unassigned) [M.54, 4-(4-(1,7-dimethyl-3-(pyridin-2-yl)-4,6,7,8-tetrahydro-1H-pyrazolo[3,4-e][1,4]thiazepin-4-yl)-3-methylphenyl)but-3-yn-1-ol] | < 50 | < 0.1
13 | Cc1cc(C#CCCO)ccc1[C@@H]1SC[C@@H](C)Nc2c1c(-c1ccccn1)nn2C (single isomer, unassigned) [M.55, 4-(4-(1,7-dimethyl-3-(pyridin-2-yl)-4,6,7,8-tetrahydro-1H-pyrazolo[3,4-e][1,4]thiazepin-4-yl)-3-methylphenyl)but-3-yn-1-ol] | < 50 | < 0.1
14 | Cc1cc(C(=O)Nc2cccnc2C)ccc1[C@@H]1SC[C@@H](C)Nc2c1c(-c1ccncn1)nn2C (single isomer, unassigned) [M.57, 4-(1,7-dimethyl-3-(pyrimidin-4-yl)-4,6,7,8-tetrahydro-1H-pyrazolo[3,4-e][1,4]thiazepin-4-yl)-3-methyl-N-(2-methylpyridin-3-yl)benzamide] | > 70 | < 0.1
15 | Cc1cc(C(=O)Nc2cccnc2C)ccc1[C@@H]1SC[C@H](C)Nc2c1c(-c1ccncn1)nn2C (single isomer, unassigned) [M.58, 4-(1,7-dimethyl-3-(pyrimidin-4-yl)-4,6,7,8-tetrahydro-1H-pyrazolo[3,4-e][1,4]thiazepin-4-yl)-3-methyl-N-(2-methylpyridin-3-yl)benzamide] | > 70 | < 0.1
16 | CCn1nc(-c2ccccn2)c2c1NCCSC2c1ccc(C(=O)Nc2cccnc2C)cc1C (single isomer, unassigned) [M.62, 4-(1-ethyl-3-(pyridin-2-yl)-4,6,7,8-tetrahydro-1H-pyrazolo[3,4-e][1,4]thiazepin-4-yl)-3-methyl-N-(2-methylpyridin-3-yl)benzamide] | > 70 | < 0.1
17 | CCn1nc(-c2ccccn2)c2c1NCCSC2c1ccc(C(=O)Nc2cccnc2C)cc1C(F)(F)F (single isomer, unassigned) [M.68, 4-(1-ethyl-3-(pyridin-2-yl)-4,6,7,8-tetrahydro-1H-pyrazolo[3,4-e][1,4]thiazepin-4-yl)-N-(2-methylpyridin-3-yl)-3-(trifluoromethyl)benzamide] | > 70 | 1 to 10
18 | Cc1cc(C#CCO)ccc1[C@@H]1SC[C@@H](C)Nc2c1c(-c1ccccn1)nn2C (single isomer, unassigned) [M.70, 3-(4-(1,7-dimethyl-3-(pyridin-2-yl)-4,6,7,8-tetrahydro-1H-pyrazolo[3,4-e][1,4]thiazepin-4-yl)-3-methylphenyl)prop-2-yn-1-ol] | < 50 | < 0.1
19 | Cc1cc(C#CCO)ccc1[C@@H]1SC[C@H](C)Nc2c1c(-c1ccccn1)nn2C (single isomer, unassigned) [M.71, 3-(4-(1,7-dimethyl-3-(pyridin-2-yl)-4,6,7,8-tetrahydro-1H-pyrazolo[3,4-e][1,4]thiazepin-4-yl)-3-methylphenyl)prop-2-yn-1-ol] | < 50 | < 0.1

From patent publication US9150592B2, “Heterocyclic nuclear hormone receptor modulators” (AbbVie Inc., priority 2012, dated 2015)
